Results: patent US8673585B2, “Biochemical serum marker” (Biouniversa S.r.l., priority 2009, dated 2014)

How the values were obtained:
J774 cells [1] = assay: Binding of FITC-conjugated recombinant BAG3 to the cell surface (confocal microscopy); type: cell-based, murine; conditions: FITC-conjugated protein added to the culture medium for 1 hour
Method: The BAG3 recombinant protein was then conjugated to FITC using the FluoroTag FITC Conjugation Kit (Sigma). Equal amounts of BSA-FITC (negative control) and rBAG3-FITC were added to the culture medium for 1 hour. Cells were then fixed with a solution of 3.7% formaldehyde and analyzed by a Zeiss LSM confocal microscope.
Binding of the BAG3 protein to the surface of J774 cells was confirmed by use of the recombinant protein conjugated with a fluorophore. BAG3 binding is specific because it is not observed when other proteins, for example BSA, are used instead of BAG3.

J774 cells [2] = assay: Macrophage activation assay: production of nitrites in the culture medium (Griess reagent); type: cell-based, murine
Method: The recombinant BAG3 protein was used for macrophage activation assays, in order to determine the possible role on blood cells of the protein released in the serum. For this purpose, the murine monocyte J774 cell line was treated with different concentrations of the recombinant BAG3 protein, using a pro-inflammatory agent such as lipopolysaccharide (LPS) as a positive control. J774 cells were plated at 60% confluence and incubated for 24 h with the recombinant BAG3 protein at concentrations of 250, 500 ng/ml and 1 mg/ml, alone or in combination with LPS at a concentration of 10 ng/ml.
Moreover the production of nitrites in the culture medium, which correlates with monocyte activation, was verified with the Griess reagent (1% sulfanilamide, 0.1% naftilethylenediamine, 5% phosphoric acid) and measured in a Beckman DU-62 spectrophotometer at 550 nM (FIG. 9b).

| Substance | binding to the surface of J774 cells (J774 cells [1]) | production of nitrites compared to the control (untreated cells) (J774 cells [2]; 24 h, 500 ng/ml, p<0.001, FIG. 9b) | dose dependence of activity (iNOS expression and nitrites) (J774 cells [2]; 24 h, 250, 500 ng/ml and 1 mg/ml, FIGS. 9a and b) |
| --- | --- | --- | --- |
| bovine serum albumin [BSA, reference compound] | not observed | – | – |
| recombinant BAG3 protein: Recombinant human BAG3 protein expressed in E. coli, His-tagged, purified by affinity chromatography; FITC-conjugated for the binding test | confirmed | increased three-fold | dose-dependent |
